# According to US8236956B2, “Cyclopamine analogues and methods of use thereof” (Infinity Pharmaceuticals, Inc., priority 2004, dated 2012):
# Test system: Hedgehog pathway
# Test: C3H10T1/2 differentiation assay (alkaline phosphatase), inhibition of the Hedgehog pathway in cell culture
# Assay type: cell-based
# Conditions: Mus musculus, C3H 10T1/2, read-out: Differentiation Assay EC50 (Approximate EC50 for Inhibition)
# Text: Hedgehog pathway specific cancer cell killing effects may be ascertained using the following assay. C3H10T1/2 cells differentiate into osteoblasts when contacted with the sonic hedgehog peptide (Shh-N). Upon differentiation; these osteoblasts produce high levels of alkaline phosphatase (AP) which can be measured in an enzymatic assay (Nakamura et al., 1997 BBRC 237: 465). Compounds that block the differentiation of C3H10T1/2 into osteoblasts (a Shh dependent event) can therefore be identified by a reduction in AP production (van der Horst et al., 2003 Bone 33: 899). The assay details are described below. The results approximate (EC50 for inhibition) of the differentiation assay is shown below in Table 1.
# Mouse embryonic mesoderm fibroblasts C3H10T1/2 cells (obtained from ATCC) were cultured in Basal MEM Media (Gibco/Invitrogen) supplemented with 10% heat inactivated FBS (Hyclone), 50 units/ml penicillin and 50 ug/ml streptomycin (Gibco/Invitrogen) at 37 C with 5% CO2 in air atmosphere.
# C3H10T1/2 cells were plated in 96 wells with a density of 8×10^3 cells/well. Cells were grown to confluence (72 hrs). After sonic Hedgehog (250 ng/ml), (R&D Systems) and/or compound treatment, the cells were lysed in 110 µl of lysis buffer (50 mM Tris pH 7.4, 0.1% TritonX100), plates were sonicated and lysates spun through 0.2 um PVDF plates (Corning). 40 ul of lysates was assayed for AP activity in alkaline buffer solution (Sigma) containing 1 mg/ml p-Nitrophenyl Phosphate. After incubating for 30 min at 37 C, the plates were read on an Envision plate reader at 405 nm. Total protein was quantified with a BCA protein assay kit from Pierce according to manufacturer's instructions. AP activity was normalized against total protein.
row,SMILES,EC50 [nM]
1,CC1=C2C[C@H]3[C@@H](CCC4=CC(=O)CC[C@@]43C)[C@@H]2CC[C@@]2(C1)O[C@@H]1C[C@H](C)CN(CCN(C)C)[C@H]1[C@H]2C [Compound 45],200 to 500
2,CC1=C2C[C@H]3[C@@H](CC=C4C[C@@H](O)CC[C@@]43C)[C@@H]2CC[C@@]2(C1)O[C@@H]1C[C@H](C)CN(C)[C@H]1[C@H]2C [Compound 20],> 500
3,CC1=C2C[C@H]3[C@@H](CCC4=CC(=O)CC[C@@]43C)[C@@H]2CC[C@@]2(C1)O[C@@H]1C[C@H](C)CN(CCO)[C@H]1[C@H]2C [Compound 39],> 500
4,CC1=C2C[C@H]3[C@@H](CC=C4C[C@@H](O)CC[C@@]43C)[C@@H]2CC[C@@]2(C1)O[C@@H]1C[C@H](C)CN[C@H]1[C@H]2C [Compound 19],200 to 500
5,CC1=C2C[C@H]3[C@@H](CCC4=CC(=O)CC[C@@]43C)[C@@H]2CC[C@@]2(C1)O[C@@H]1C[C@H](C)CN(CCNC(=O)CCc3ccccc3)[C@H]1[C@H]2C [Compound 21],< 200
6,CC1=C2C[C@H]3[C@@H](CC=C4C[C@@H](O)CC[C@@]43C)[C@@H]2CC[C@@]2(C1)O[C@@H]1C[C@H](C)CN(CCNC(=O)CNC(=O)CCc3ccccc3)[C@H]1[C@H]2C [Compound 30],< 200
7,C[C@@H]1CN[C@H]2[C@@H](C)[C@@]3(CC[C@H]4[C@@H]5CC=C6C[C@@H](O)CC[C@]6(C)[C@H]5CC45CC53C)O[C@@H]2C1 (some centres unmarked) [Compound 1],> 500
8,C[C@@H]1CN[C@H]2[C@@H](C)[C@@]3(CC[C@H]4[C@@H]5CCC6=CC(=O)CC[C@]6(C)[C@H]5CC45CC53C)O[C@@H]2C1 (some centres unmarked) [Compound 11],> 500

# Same assay, conditions: Mus musculus, C3H 10T1/2; C3H10T1/2 cells, sonic Hedgehog 250 ng/ml, AP activity normalized against total protein; approximate; read-out: Differentiation Assay EC50 (Approximate EC50 for Inhibition)
row,SMILES,EC50 [nM]
1,COCCOCCOCCN1C[C@@H](C)C[C@H]2O[C@]3(CC[C@@H]4C(=C(C)C3)C[C@H]3[C@H]4CCC4=CC(=O)CC[C@@]43C)[C@H](C)[C@@H]21 [Compound 33],< 200
2,CC1=C2C[C@H]3[C@@H](CCC4=CC(=O)CC[C@@]43C)[C@@H]2CC[C@@]2(C1)O[C@@H]1C[C@H](C)CN(Cc3ccccc3)[C@H]1[C@H]2C [Compound 35],< 200
3,CC1=C2C[C@H]3[C@@H](CCC4=CC(=O)CC[C@@]43C)[C@@H]2CC[C@@]2(C1)O[C@@H]1C[C@H](C)CN(CCOCCOCc3ccccc3)[C@H]1[C@H]2C [Compound 43],200 to 500
4,C[C@H]1C[C@H]2O[C@]3(CC[C@H]4[C@@H]5CCC6=CC(=O)CC[C@]6(C)[C@H]5CC45CC53C)[C@H](C)[C@@H]2N(CCNC(=O)CCCCCNC(=O)CCc2ccccc2)C1 (some centres unmarked) [Compound 17],< 200
5,C[C@H]1C[C@H]2O[C@]3(CC[C@H]4[C@@H]5CC=C6C[C@@H](O)CC[C@]6(C)[C@H]5CC45CC53C)[C@H](C)[C@@H]2N(CCNC(=O)CCCCCNC(=O)CCc2ccccc2)C1 (some centres unmarked) [Compound 4],< 200
6,CC1=C2C[C@H]3[C@@H](CCC4=CC(=O)CC[C@@]43C)[C@@H]2CC[C@@]2(C1)O[C@@H]1C[C@H](C)CN[C@H]1[C@H]2C [Compound 18],< 200
7,COCCOCCN1C[C@@H](C)C[C@H]2O[C@]3(CC[C@@H]4C(=C(C)C3)C[C@H]3C4CCC4=CC(=O)CC[C@@]43C)[C@H](C)[C@@H]21 (some centres unmarked) [Compound 29],< 200
8,CC1=C2C[C@H]3[C@@H](CCC4=CC(=O)CC[C@@]43C)[C@@H]2CC[C@@]2(C1)O[C@@H]1C[C@H](C)CN(CC(=O)NCCCc3ccccc3)[C@H]1[C@H]2C [Compound 47],200 to 500
9,COCCOCCOCCOCCN1C[C@@H](C)C[C@H]2O[C@]3(CC[C@@H]4C(=C(C)C3)C[C@H]3[C@H]4CCC4=CC(=O)CC[C@@]43C)[C@H](C)[C@@H]21 [Compound 31],< 200
10,CC1=C2C[C@H]3[C@@H](CCC4=CC(=O)CC[C@@]43C)[C@@H]2CC[C@@]2(C1)O[C@@H]1C[C@H](C)CN(Cc3ccc(Oc4ccccc4)cc3)[C@H]1[C@H]2C [Compound 37],> 500
11,CC1=C2C[C@H]3C(CC=C4C[C@@H](O)CC[C@@]43C)[C@@H]2CC[C@@]2(C1)O[C@@H]1C[C@H](C)CN(CCCl)[C@H]1[C@H]2C (some centres unmarked) [Compound 27],> 500
12,CC1=C2C[C@H]3[C@@H](CCC4=CC(=O)CC[C@@]43C)[C@@H]2CC[C@@]2(C1)O[C@@H]1C[C@H](C)CN(CCNS(=O)(=O)CCc3ccccc3)[C@H]1[C@H]2C [Compound 24],200 to 500
13,CC1=C2C[C@H]3C(CCC4=CC(=O)CC[C@@]43C)[C@@H]2CC[C@@]2(C1)O[C@@H]1C[C@H](C)CN(CCCl)[C@H]1[C@H]2C (some centres unmarked) [Compound 28],> 500
14,COCCOCCN1C[C@@H](C)C[C@H]2O[C@]3(CC[C@@H]4C(=C(C)C3)C[C@H]3[C@H]4CCC4=CC(=O)CC[C@@]43C)[C@H](C)[C@@H]21 [Compound 41],< 200

# Test system: psoriasis lesions
# Test: not given
# Conditions: topical application; Tas et al., 2004 Dermatology 209: 126-131; cited from earlier work
row,SMILES,effect on psoriasis lesions
1,CC1=C2C[C@H]3[C@@H](CC=C4C[C@@H](O)CC[C@@]43C)[C@@H]2CC[C@]12O[C@@H]1C[C@H](C)CN[C@H]1[C@H]2C [cyclopamine],full or partial regression of the lesion
